Measured values taken from ChEMBL document CHEMBL5126603, “Discovery of Clinical Candidate CHF-6366: A Novel Super-soft Dual Pharmacology Muscarinic Antagonist and β2 Agonist (MABA) for the Inhaled Treatment of Respiratory Diseases” (J Med Chem, 2022).

Tests used:
[1] = Half life in Dunkin-Hartley guinea pig plasma at 500 nmol/Kg, IT(Intratracheal) measured after 72 hrs by LC/MS-MS analysis; format: ADME, cell-free, Cavia porcellus; details: inhaled or intranasal
[2] = Cmax in Dunkin-Hartley guinea pig lung at 500 nmol/Kg, IT(Intratracheal) measured after 72 hrs by LC/MS-MS analysis; format: ADME, tissue-based, Cavia porcellus; parameters: time 72 hrs, dose 500 nmol/kg, route it(Intratracheal); details: inhaled or intranasal
[3] = Cmax in Dunkin-Hartley guinea pig plasma at 500 nmol/Kg, IT(Intratracheal) measured after 72 hrs by LC/MS-MS analysis; format: ADME, cell-free, Cavia porcellus; parameters: dose 500 nmol/kg, time 72 hrs, route it(Intratracheal); details: inhaled or intranasal
[4] = AUCinfinity in Dunkin-Hartley guinea pig plasma at 500 nmol/Kg, IT(Intratracheal) measured after 72 hrs by LC/MS-MS analysis; format: ADME, cell-free, Cavia porcellus; parameters: dose 500 nmol/kg, time 72 hrs, route it(Intratracheal); details: inhaled or intranasal
[5] = Tmax in Dunkin-Hartley guinea pig lung at 500 nmol/Kg, IT(Intratracheal) measured after 72 hrs by LC/MS-MS analysis; format: ADME, tissue-based, Cavia porcellus; details: inhaled or intranasal
[6] = AUCinfinity in Dunkin-Hartley guinea pig lung at 500 nmol/Kg, IT(Intratracheal) measured after 72 hrs by LC/MS-MS analysis; format: ADME, tissue-based, Cavia porcellus; parameters: dose 500 nmol/kg, time 72 hrs, route it(Intratracheal); details: in vivo, inhaled_or_intranasal
Trachea [7] = assay: (§1) Bifunctional antagonist activity at muscarinic M3 receptor /agonist activity at beta-2 adrenoceptor in Dunkin-Hartley guinea pig trachea assessed as inhibition of acetylcholine-induced bronchoconstriction at 1 nmol/Kg, IT(Intratracheal) measured after 5 mins by Konzett-Roessler methodology relative to control; format: functional; details: Cavia porcellus
[8] = AUClast in Dunkin-Hartley guinea pig lung at 500 nmol/Kg, IT(Intratracheal) measured after 72 hrs by LC/MS-MS analysis; format: ADME, tissue-based, Cavia porcellus; details: in vivo, inhaled_or_intranasal
[9] = AUClast in Dunkin-Hartley guinea pig plasma at 500 nmol/Kg, IT(Intratracheal) measured after 72 hrs by LC/MS-MS analysis; format: ADME, cell-free, Cavia porcellus; parameters: time 72 hrs, dose 500 nmol/kg, route it(Intratracheal); details: inhaled or intranasal
[10] = Mutagenicity in Escherichia coli assessed as induction of reverse mutation by Ames test; format: toxicity
Trachea [11] = assay: as §1, with “30” for “5”; format: functional; details: Cavia porcellus, 0.5 h
[12] = Mutagenicity in Salmonella typhimurium assessed as induction of reverse mutation by Ames test; format: toxicity; details: salmonella enterica subsp. enterica serovar typhimurium
[13] = Tmax in Dunkin-Hartley guinea pig plasma at 500 nmol/Kg, IT(Intratracheal) measured after 72 hrs by LC/MS-MS analysis; format: ADME, cell-free, Cavia porcellus; details: inhaled or intranasal
[14] = Half life in Dunkin-Hartley guinea pig lung at 500 nmol/Kg, IT(Intratracheal) measured after 72 hrs by LC/MS-MS analysis; format: ADME, tissue-based, Cavia porcellus; details: inhaled or intranasal
Trachea [15] = assay: as §1, with “15” for “5”; format: functional; details: Cavia porcellus, 0.25 h
[16] = Metabolic stability in human plasma assessed as half life at 5 uM measured upto 120 mins by LC-MS/MS analysis; format: ADME, cell-free
[17] = Metabolic stability in rat plasma assessed as half life at 5 uM measured upto 120 mins by LC-MS/MS analysis; format: ADME, cell-free
Trachea [18] = assay: In vivo bifunctional antagonist activity at muscarinic M3 receptor /agonist activity at beta-2 adrenoceptor in Dunkin-Hartley guinea pig trachea assessed as inhibition of carbachol induced contraction; format: functional, tissue-based; details: Cavia porcellus
Trachea [19] = assay: In vivo bifunctional antagonist activity at muscarinic M3 receptor /agonist activity at beta-2 adrenoceptor in Dunkin-Hartley guinea pig trachea assessed as time duration for inhibition of carbachol induced contraction measured […]; format: functional, Cavia porcellus
[20] = Metabolic stability in Dunkin-Hartley guinea pig plasma assessed as half life at 5 uM measured upto 120 mins by LC-MS/MS analysis; format: ADME, cell-free, Cavia porcellus
[21] = Metabolic stability in human lung S9 fraction assessed as half life at 1 uM measured after 0 to 60 mins in presence of NADPH by LC-MS/MS analysis; format: ADME, subcellular; details: time 0-60 min
[22] = In vivo antagonist activity at muscarinic M3 receptor in Dunkin-Hartley guinea pig trachea assessed as inhibition of acetylcholine induced bronchoconstriction at 1 nmol/Kg, IT(Intratracheal) measured after 24 hr in presence of ICI-118551 by Konzett-Roessler methodology relative to control; format: functional; details: Cavia porcellus
Trachea [23] = assay: as §1, with “3” for “1”, “24 hr” for “5 mins”; format: functional; details: Cavia porcellus
[24] = Metabolic stability in rat lung S9 fraction assessed as half life at 1 uM measured after 0 to 60 mins in presence of NADPH by LC-MS/MS analysis; format: ADME, subcellular; details: time 0-60 min
[25] = In vivo agonist activity at beta-2 adrenoceptor in Dunkin-Hartley guinea pig trachea assessed as inhibition of histamine induced bronchoconstriction at 1 nmol/Kg, IT(Intratracheal) measured after 1 hr by Konzett-Roessler methodology relative to control; format: functional; details: Cavia porcellus
Trachea [26] = assay: as §1, with “3” for “1”, “1 hr” for “5 mins”; format: functional; details: Cavia porcellus
[27] = Metabolic stability in Dunkin-Hartley guinea pig lung S9 fraction assessed as half life at 1 uM measured after 0 to 60 mins in presence of NADPH by LC-MS/MS analysis; format: ADME, subcellular, Cavia porcellus; details: time 0-60 min
Trachea [28] = assay: as §1, with “acetylcholine induced” for “acetylcholine-induced”, “24 hr” for “5 mins”; format: functional; details: Cavia porcellus
[29] = In vivo antagonist activity at muscarinic M3 receptor in Dunkin-Hartley guinea pig trachea assessed as inhibition of acetylcholine-induced bronchoconstriction at 3 nmol/Kg, IT(Intratracheal) measured after 24 hr in presence of ICI-118551 by Konzett-Roessler methodology relative to control; format: functional; details: Cavia porcellus
[30] = In vivo antagonist activity at muscarinic M3 receptor in Dunkin-Hartley guinea pig trachea assessed as inhibition of acetylcholine-induced bronchoconstriction at 3 nmol/Kg, IT(Intratracheal) measured after 1 hr in presence of ICI-118551 by Konzett-Roessler methodology relative to control; format: functional; details: Cavia porcellus
[31] = In vivo antagonist activity at muscarinic M3 receptor in Dunkin-Hartley guinea pig trachea assessed as inhibition of acetylcholine induced bronchoconstriction at 1 nmol/Kg, IT(Intratracheal) measured after 1 hr in presence of ICI-118551 by Konzett-Roessler methodology relative to control; format: functional; details: Cavia porcellus
[32] = In vivo agonist activity at beta-2 adrenoceptor in Dunkin-Hartley guinea pig trachea assessed as inhibition of histamine-induced bronchoconstriction at 3 nmol/Kg, IT(Intratracheal) measured after 24 hr by Konzett-Roessler methodology relative to control; format: functional; details: Cavia porcellus
[33] = In vivo agonist activity at beta-2 adrenoceptor in Dunkin-Hartley guinea pig trachea assessed as inhibition of histamine-induced bronchoconstriction at 3 nmol/Kg, IT(Intratracheal) measured after 1 hr by Konzett-Roessler methodology relative to control; format: functional; details: Cavia porcellus
Trachea [34] = assay: as §1, with “acetylcholine induced” for “acetylcholine-induced”, “1 hr” for “5 mins”; format: functional; details: Cavia porcellus
[35] = In vivo agonist activity at beta-2 adrenoceptor in Dunkin-Hartley guinea pig trachea assessed as inhibition of histamine induced bronchoconstriction at 1 nmol/Kg, IT(Intratracheal) measured after 24 hr by Konzett-Roessler methodology relative to control; format: functional; details: Cavia porcellus
[36] = Metabolic stability in human hepatocytes assessed as clearance at 1 uM measured per 10^6 cells and incubated upto 90 mins by LC-MS/MS analysis; format: ADME, cell-based, Hepatocyte; details: read-out: CLH
[37] = Metabolic stability in Dunkin-Hartley guinea pig hepatocytes assessed as clearance at 1 uM measured per 10^6 cells and incubated upto 90 mins by LC-MS/MS analysis; format: ADME, cell-based, Cavia porcellus, Hepatocyte; details: read-out: CLH
[38] = Protein binding in human plasma assessed as unbound fraction at 5 uM measured after 4 hrs by LC-MS/MS analysis; format: ADME, cell-free
[39] = Protein binding in rat plasma assessed as unbound fraction at 5 uM measured after 4 hrs by LC-MS/MS analysis; format: ADME, cell-free
[40] = Protein binding in Dunkin-Hartley guinea pig plasma assessed as unbound fraction at 5 uM measured after 4 hrs by LC-MS/MS analysis; format: ADME, cell-free, Cavia porcellus
[41] = Efflux ratio of apparent permeability from basolateral to apical side over apical to basolateral side in human Caco-2 cells at 10 uM and measured after 2 hrs by LC-MS/MS analysis; format: ADME, cell-based
[42] = Apparent permeability across basolateral to apical side in human Caco-2 cells at 10 uM and measured after 2 hrs by LC-MS/MS analysis; format: ADME, cell-based
[43] = Metabolic stability in human liver microsomes assessed as clearance at 1 uM measured per mg protein incubated upto 60 mins in presence of NADPH by LC-MS/MS analysis; format: ADME, Microsome; details: read-out: CLH
[44] = Metabolic stability in rat liver microsomes assessed as clearance at 1 uM measured per mg protein incubated upto 60 mins in presence of NADPH by LC-MS/MS analysis; format: ADME, Microsome; details: read-out: CLH
[45] = Apparent permeability across apical to basolateral side in human Caco-2 cells at 10 uM and measured after 2 hrs by LC-MS/MS analysis; format: ADME, cell-based
[46] = Metabolic stability in rat hepatocytes assessed as clearance at 1 uM measured per 10^6 cells and incubated upto 90 mins by LC-MS/MS analysis; format: ADME, cell-based, Hepatocyte; details: read-out: CLH

SMILES	half-life at 5 µM [16]	half-life at 5 µM [17]	IC50 (Trachea [18])	Time (Trachea [19])	half-life at 5 µM [20]	half-life at 1 µM [21]	inhibition in vivo at 0.003 µmol/kg (Trachea [23])	half-life at 1 µM [24]	inhibition in vivo at 0.003 µmol/kg (Trachea [26])	half-life at 1 µM [27]	inhibition in vivo at 0.003 µmol/kg [29]	inhibition in vivo at 0.003 µmol/kg [30]	inhibition in vivo at 0.003 µmol/kg [32]	inhibition in vivo at 0.003 µmol/kg [33]	other results
O=c1ccc2c([C@@H](O)CNCCCCO)ccc(O)c2[nH]1	–	–	–	–	–	–	–	–	–	–	–	–	–	–	half-life [1]: 7.74 h; Cmax [2]: 334 ng/g; Cmax [3]: 13.8 ng/g; AUC(0-inf) [4]: 58.9 ng·h/mL; Tmax [5]: 4.98 min; AUC [6]: 3517 ng·h/g; inhibition in vivo at 0.001 µmol/kg (Trachea [7]): 51.4%; AUClast [8]: 2429 ng·h/g; AUC(0-t) at 72 h [9]: 30.7 ng·h/mL; Activity [10]: Non-Toxic; inhibition in vivo at 0.001 µmol/kg (Trachea [11]): 22%; Activity [12]: Non-Toxic; Tmax [13]: 4.98 min; half-life [14]: 14.3 h; inhibition in vivo at 0.001 µmol/kg (Trachea [15]): 23.2%
COc1cc(C(=O)OCCCCNC[C@H](O)c2ccc(O)c3[nH]c(=O)ccc23)ccc1COc1cccc([C@@H](NC(=O)O[C@H]2CN3CCC2CC3)c2ccccc2)c1	0.35 h	0.2 h	1.26 nM	<135 min	1.39 h	1.49 h	–	–	–	–	–	–	–	–	–
O=C(N[C@@H](c1ccccc1)c1cccc(OCc2ccc(C(=O)OCCCCNC[C@H](O)c3ccc(O)c4[nH]c(=O)ccc34)o2)c1)O[C@H]1CN2CCC1CC2	< 0.0833 h	0.117 h	0.2 nM	>225 min	> 2 h	0.533 h	60.6%	2 h	78.3%	> 2 h	43.5%	73.7%	48.7%	84.5%	inhibition in vivo at 0.001 µmol/kg [22]: 9.4%; inhibition in vivo at 0.001 µmol/kg [25]: 67.8%; inhibition in vivo at 0.001 µmol/kg (Trachea [28]): 34.2%; inhibition in vivo at 0.001 µmol/kg [31]: 64.7%; inhibition in vivo at 0.001 µmol/kg (Trachea [34]): 72%; inhibition in vivo at 0.001 µmol/kg [35]: 48.9%
O=C(N[C@@H](c1ccccc1)c1cccc(OCc2ccc(C(=O)OCCCCNC[C@H](O)c3ccc(O)c4[nH]c(=O)ccc34)cc2)c1)O[C@H]1CN2CCC1CC2	< 0.0833 h	< 0.0833 h	0.1 nM	>225 min	1.16 h	0.44 h	–	–	–	–	–	–	–	–	–
O=C(N[C@@H](c1ccccc1)c1cccc(OCc2ccc(CCNC[C@H](O)c3ccc(O)c4[nH]c(=O)ccc34)cc2)c1)O[C@H]1CN2CCC1CC2 (racemic)	–	–	–	–	–	3.6 h	77%	3.33 h	91%	1.17 h	54%	78%	35%	67%	hepatocyte CLint at 1 µM [36]: 6 µL/min/1e6 cells; hepatocyte CLint at 1 µM [37]: 17 µL/min/1e6 cells; Fu [38]: 98%; Fu [39]: 98%; Fu [40]: 99%; efflux ratio at 2 h, 10 µM [41]: 1.5; Papp B→A at 2 h, 10 µM [42]: 3.1 ×10⁻⁶ cm/s; microsomal CLint at 1 µM [43]: 16 µL/min/mg; microsomal CLint at 1 µM [44]: 10 µL/min/mg; Papp A→B at 2 h, 10 µM [45]: 2 ×10⁻⁶ cm/s; hepatocyte CLint at 1 µM [46]: 25 µL/min/1e6 cells
